Assay results from ChEMBL document CHEMBL6087390, “Pyridine and Pyrimidine hybrids as privileged scaffolds in antimalarial drug discovery: A recent development” (Bioorg Med Chem Lett, 2024).
≈ marks a conversion by molar mass, not a printed value.

Legend:
Plasmodium falciparum [1] = test: Antiplasmodial activity against Plasmodium falciparum Dd2 assessed as reduction in parasite growth measured after 72 hrs by SYBR Green 1 staining based assay; assay type: functional, organism-based; settings: Dd2, 72 h
Plasmodium falciparum [2] = test: microbe, parasite or virus in culture; settings: 3D7
Description: Antiplasmodial activity against Plasmodium falciparum 3D7

Plasmodium falciparum [3] = test: Antimalarial activity against Plasmodium falciparum RKL9; assay type: functional, organism-based
Plasmodium falciparum [4] = test: microbe, parasite or virus in culture; settings: 3D7, 48 h
Plasmodium falciparum [5] = assay type: functional, organism-based; settings: W2
HepG2 [6] = test: Cytotoxicity against human HepG2 cells assessed as reduction in cell viability measured for 48 hrs by SRB assay; assay type: functional
Plasmodium falciparum [7] = test: Antiplasmodial activity against multidrug resistant Plasmodium falciparum K1 assessed as reduction in parasite growth by [3H]-hypoxanthine incorporation assay; assay type: functional, organism-based
HepG2 [8] = test: Cytotoxicity against human HepG2 cells assessed as reduction in cell viability measured for 48 hrs by MTT assay; assay type: functional
Plasmodium falciparum [9] = test: Antimalarial activity against Plasmodium falciparum 3D7 assessed as reduction in malarial growth measured after 48 hrs by SYBR green dye based analysis; assay type: functional, organism-based; settings: 3D7, 48 h
Plasmodium falciparum [10] = test: Antimalarial activity against CQ-resistant Plasmodium falciparum Dd2; assay type: functional, organism-based
Plasmodium falciparum [11] = test: microbe, parasite or virus in culture; settings: 3D7, 72 h
Plasmodium falciparum [12] = test: Antiplasmodial activity against Plasmodium falciparum K1; assay type: functional, organism-based
[13] = Cytotoxicity against human MRC5 cells assessed as inhibition of cell growth incubated for 72 hrs by MTT assay; assay type: toxicity, cell-based
[14] = Cytotoxicity against african green monkey Vero cells assessed as cell viability measured after 48 hrs by MTT assay; assay type: toxicity, cell-based, Chlorocebus sabaeus; settings: chlorocebus sabaeus, time 48 hrs

## FC(F)(F)c1cccc(CN(C2CC2)C(c2cccnc2)c2nnnn2C2CC2)c1 (configuration not stated)
Plasmodium falciparum [1]
  EC50: 3 µM

## O=c1ccc2ccc(OCc3cn(-c4ccc(S(=O)(=O)N5CCN(c6ccccn6)CC5)cc4)nn3)cc2o1
Plasmodium falciparum [2]
  IC50: > 73.5 µg/mL

## COc1ccc(-c2cc(-c3cc(Cl)sc3Cl)nc(S)n2)cc1OCc1ccccc1
Plasmodium falciparum [3]
  IC50: 2.2 µg/mL (≈ 4.63 µM)
Plasmodium falciparum [4]
  IC50: 4.2 µg/mL (≈ 8.83 µM)

## O=S(=O)(NCCCCNc1ncnc2c1cnn2-c1ccc(Cl)cc1)c1ccc(F)cc1
Plasmodium falciparum [5]
  IC50: 43.4 µM

## CCCN(C(c1cncnc1)c1nnnn1-c1ccccc1C)C1(c2cccc(C(F)(F)F)c2)CC1 (configuration not stated)
HepG2 [6]
  CC50: 13 µM

## O=c1cc(OCc2cn(-c3ccc(S(=O)(=O)N4CCN(c5ccccn5)CC4)cc3)nn2)c2ccccc2o1
Plasmodium falciparum [2]
  IC50: 73.5 µg/mL

## Cc1ccccc1N(C)C(=O)C(c1cncnc1)N(Cc1cccc(SC(F)(F)F)c1)C1CC1 (configuration not stated)
Plasmodium falciparum [7]
  EC50: 1 µM
HepG2 [8]
  CC50: > 30 µM

## Cc1ccc(-c2nn(-c3ccccc3)cc2/C=C/c2nnc(-c3ccncc3)o2)cc1
Plasmodium falciparum [3]
  IC50: 1.7 µg/mL (≈ 4.19 µM)
Plasmodium falciparum [9]
  IC50: 0.4 µg/mL

## COc1ccc2nc(/C=C/c3ccncc3)cc(NC3CCCCC3)c2c1
Plasmodium falciparum [10]
  IC50: 0.27 µM

## Cc1cc(C)nc(NS(=O)(=O)c2ccc(-n3cc(COc4ccc5c(C)cc(=O)oc5c4)nn3)cc2)n1
Plasmodium falciparum [9]
  IC50: 20.5 µM

## O=C(N/N=C/c1cnn(-c2ccccc2)n1)c1ccncc1
Plasmodium falciparum [2]
  IC50: 20.2 µM

## COc1cc(-c2cc(-c3cc(Cl)sc3Cl)nc(N)n2)ccc1OCc1ccccc1
Plasmodium falciparum [3]
  IC50: 2.9 µg/mL (≈ 6.33 µM)
Plasmodium falciparum [4]
  IC50: 6.3 µg/mL (≈ 13.7 µM)

## Cc1n[nH]c2c1C(c1ccc(Br)cc1)c1c(nc3oc(=O)c(C#N)c(N)c3c1N)O2 (configuration not stated)
Plasmodium falciparum [2]
  IC50: 1.85 µg/mL

## Cc1ccc(NS(=O)(=O)c2ccc(Nc3cc(C)nc4nc(C(F)(F)F)nn34)cc2)cc1
Plasmodium falciparum [11]
  IC50: 0.03 µM

## Cc1ccc(S(=O)(=O)NCCCCNc2ncnc3c2cnn3-c2ccc(F)cc2)cc1
Plasmodium falciparum [5]
  IC50: 5.13 µM

## Cc1ccccc1N(C)C(=O)C(c1cccnc1)N(Cc1cc(C(F)(F)F)ccc1F)C1CC1 (configuration not stated)
HepG2 [6]
  CC50: > 30 µM

## CCCN(C(C(=O)N(C)c1ccccc1C)c1cccnc1)C1(c2cccc(C(F)(F)F)c2)CC1 (configuration not stated)
HepG2 [6]
  CC50: > 15 µM

## COc1ncnc(NS(=O)(=O)c2ccc(N)cc2)c1OC [SULFADOXINE]
Plasmodium falciparum [5]
  IC50: 15 µM

## COc1ccc(-n2cc(/C=N/NC(=O)c3ccncc3)nn2)cc1
Plasmodium falciparum [2]
  IC50: 23.2 µM

## Cc1cc(C)cc(N(Cc2cc(C)ccc2C)S(=O)(=O)c2cccn3c(C)nnc23)c1
Plasmodium falciparum [12]
  IC50: 11.5 µM
[13]
  IC50 at 72 h: 48.5 µM

## Cc1ccccc1N(C)C(=O)C(c1cccnc1)N(Cc1cccc(OC(F)(F)F)c1)C1CC1 (configuration not stated)
HepG2 [6]
  CC50: > 30 µM

## CN(C(=O)C(c1cncnc1)N(Cc1cccc(C(F)(F)F)c1)C1CC1)c1ccccc1 (configuration not stated)
Plasmodium falciparum [7]
  EC50: 2 µM
HepG2 [8]
  CC50: > 30 µM

## CCc1nnc2ccc(S(=O)(=O)N(Cc3cccc(F)c3)c3ccc(OC)cc3)cn12
[13]
  IC50 at 72 h: 18.2 µM

## Cc1ccccc1-n1nnnc1C(c1cncnc1)N(Cc1cc(F)cc(C(F)(F)F)c1)C1CC1 (configuration not stated)
HepG2 [6]
  CC50: 36 µM
Plasmodium falciparum [1]
  EC50: 1.2 µM

## COc1ccc2cc3[n+](cc2c1OCc1cn(-c2ccc(S(=O)(=O)Nc4nc(C)cc(C)n4)cc2)nn1)CCc1cc2c(cc1-3)OCO2.[Cl-]
Plasmodium falciparum [9]
  IC50: 4 µg/mL

## Cc1cc(C)nc(NS(=O)(=O)c2ccc(-n3cc(COc4ccc5ccc(=O)oc5c4)nn3)cc2)n1
Plasmodium falciparum [9]
  IC50: > 79.4 µM

## COc1ccc(-n2cc(-c3cncc4ccccc34)nn2)cn1
Plasmodium falciparum [2]
  IC50: 62 µM

## COc1ccc(-c2cc(-c3ccco3)nc(S)n2)cc1OCc1ccccc1
Plasmodium falciparum [3]
  IC50: 2 µg/mL (≈ 5.12 µM)
Plasmodium falciparum [4]
  IC50: 5.1 µg/mL (≈ 13.1 µM)

## O=S(=O)(c1ccc(-n2cc(COc3ccc(Br)cc3)nn2)cc1)N1CCN(c2ccccn2)CC1
Plasmodium falciparum [2]
  IC50: 46 µg/mL

## COc1ccc(-c2cc(-c3ccco3)nc(N)n2)cc1OCc1ccccc1
Plasmodium falciparum [3]
  IC50: 3.2 µg/mL (≈ 8.57 µM)
Plasmodium falciparum [4]
  IC50: 4.4 µg/mL (≈ 11.8 µM)

## O=S(=O)(c1ccc(-n2cc(COc3ccc(F)cc3)nn2)cc1)N1CCN(c2ccccn2)CC1
Plasmodium falciparum [2]
  IC50: > 50 µg/mL

## Cc1ccccc1N(C)C(=O)C(c1cccnc1)N(Cc1cccc(C(F)(F)F)c1)C1CC1 (configuration not stated)
HepG2 [6]
  CC50: > 20 µM

## Cc1nn(-c2ccccc2)c(-n2ccnc2)c1-c1cc(-c2ccc(F)cc2)nc2nc3ccccc3n12
Plasmodium falciparum [4]
  IC50: 0.03 µg/mL (≈ 0.0618 µM)

## CC(C)=CCC1=C(O)C(=O)c2ccccc2C1=O [LAPACHOL]
[14]
  CC50 at 48 h: > 4130 µM

## COc1ccc2nc(/C=C/c3ccncc3)cc(NCCN(C)C)c2c1
Plasmodium falciparum [10]
  IC50: 0.03 µM

## Cc1ccc(-c2cc(-c3c(C)nn(-c4ccccc4)c3-n3ccnc3)n3c(n2)nc2ccccc23)cc1
Plasmodium falciparum [4]
  IC50: 1.84 µg/mL (≈ 3.82 µM)

## Cc1nn(-c2ccccc2)c(-n2ccnc2)c1-c1cc(-c2cc[nH]c2)nc2nc3ccccc3n12
Plasmodium falciparum [4]
  IC50: 0.07 µg/mL (≈ 0.153 µM)

## Cc1n[nH]c2c1C(c1ccc(F)cc1)c1c(nc3oc(=O)c(C#N)c(N)c3c1N)O2 (configuration not stated)
Plasmodium falciparum [2]
  IC50: 1.48 µg/mL

## NCCCCNc1ncnc2c1cnn2-c1ccc(Cl)cc1
Plasmodium falciparum [5]
  IC50: 13.2 µM

## Cc1cccc(-n2nc3ccc(S(=O)(=O)N4CCC(C)CC4)cn3c2=O)c1
Plasmodium falciparum [12]
  IC50: 8 µM
[13]
  IC50 at 72 h: > 64 µM

## Cc1cc(C)nc(NS(=O)(=O)c2ccc(-n3cc(COc4ccccc4)nn3)cc2)n1
Plasmodium falciparum [2]
  IC50: > 50 µg/mL

## COc1ccc2nc(/C=C/c3ccncc3)cc(N3CCCC3)c2c1
Plasmodium falciparum [10]
  IC50: 0.36 µM
